Data on 23 compounds can be found in patent US8614206B2 (Genentech, Inc., priority 2011, dated 2013).

One experiment concerns BaF3 parental cells. Kind of experiment: In vitro cell proliferation, BaF3 parental line + IL3 (CellTiter-Glo). Format: cell-based, murine. Conditions: Mus musculus, BaF3, BaF3 parental cells with IL-3, incubated overnight. On the technique in general: Cellular ATP, detected with luciferase, serves as a proxy for viable cell number.
The subject of experiment [1] is MM1.S (multiple myeloma) cells. The experiment is described as follows: In vitro cell proliferation, MM1.S multiple myeloma cells (CellTiter-Glo, ATP). Format: cell-based. The settings on record: Homo sapiens, MM1.S, 72 h, read-out: Prolif MM1S ATP (EC50). Put shortly: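 BaF3 parental cells (medium with 2 ng/mL mIL-3) seeded at 2 k/well and MM1.S at 10 k/well, then exposed to test compound at 37° C, 5% CO2: BaF3 overnight, MM1.S for 72 hours. Viability read by CellTiter-Glo; IC50/EC50 values calculated.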

In the next experiment the test system is BaF3 PIM1 cells. The experiment is described as follows: cells. Conditions: Mus musculus.
For a further experiment, the target named is PIM1 (Homo sapiens (Human), UniProt P11309). Kind of experiment: Pim kinase inhibition, PIM1 LC3K (Example 901). The class given is biochemical.
[2] abbreviates: read-out: Prolif BaF3 IL3 (IC50).
Setting [3] is: BaF3, read-out: Prolif BaF3 PIM1 (IC50), BaF3 PIM1 cells, incubated overnight.
[4] abbreviates: read-out: Prolif BaF3 + IL3 (IC50).
The mark [5] stands for this setting: BaF3, read-out: Prolif BaF3_PIM1 (IC50), BaF3 PIM1 cells, incubated overnight.

Where two headings read alike, the source gives them in different places.

PIM1, sequence (P11309 whole entry): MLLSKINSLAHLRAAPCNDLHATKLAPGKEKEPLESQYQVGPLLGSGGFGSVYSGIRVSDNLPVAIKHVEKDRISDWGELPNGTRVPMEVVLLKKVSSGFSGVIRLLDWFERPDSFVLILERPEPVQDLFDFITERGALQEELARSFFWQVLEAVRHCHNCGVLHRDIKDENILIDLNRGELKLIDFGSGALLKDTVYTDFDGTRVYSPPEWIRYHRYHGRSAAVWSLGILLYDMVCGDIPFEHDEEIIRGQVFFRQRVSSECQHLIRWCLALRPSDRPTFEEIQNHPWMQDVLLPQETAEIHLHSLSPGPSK

By IC50 is commonly meant the concentration needed to halve the response being measured. One may read the EC50 as the concentration at which the effect is half-maximal. On to `Cn1ncc(NC(=O)c2nc(-c3c(F)cccc3F)sc2N)c1N1CC[C@H](N)CC(F)(F)C1` [Example 166, (S)-5-amino-N-(5-(5-amino-3,3-difluoroazepan-1-yl)-1-methyl-1H-pyrazol-4-yl)-2-(2,6-difluorophenyl)thiazole-4-carboxamide], for which the IC50 in the experiment on BaF3 parental cells (setting [2]) came out at 13400 nM; in the experiment on BaF3 PIM1 cells (setting [3]), 16.5 nM. The EC50 in experiment [1] was 22.9 nM.
On the same counts, the results for `Cn1ncc(NC(=O)c2nc(-c3c(F)cccc3F)sc2N)c1N1CCC(N)CC(F)(F)C1` (stereo not shown) [Example 121, 5-Amino-N-(5-(5-amino-3,3-difluoroazepan-1-yl)-1-methyl-1H-pyrazol-4-yl)-2-(2,6-difluorophenyl)thiazole-4-carboxamide] are 4800 nM, 21 nM and 50.2 nM.
In general, Ki refers to the dissociation constant of the complex between target and ligand, obtained from inhibition or displacement. `Cn1ncc(NC(=O)c2nc(-c3c(F)cccc3F)sc2N)c1N1CC[C@@H]2NC(=O)O[C@@H]2CC1` [Example 488, N-[5-[(3aS,8aR)-2-oxo-3a,4,5,7,8,8a-hexahydro-3H-oxazolo[4,5-d]azepin-6-yl]-1-methyl-pyrazol-4-yl]-5-amino-2-(2,6-difluorophenyl)thiazole-4-carboxamide]: the figures for the IC50 in the experiment on BaF3 parental cells (setting [4]) and with BaF3 PIM1 cells (setting [5]) were 5400 nM and 2000 nM, respectively. The compound also came in with a Ki at PIM1 of 0.353 nM.
On the same counts, the results for `Cn1ncc(NC(=O)c2nc(-c3ccccc3F)sc2N)c1N1CCCC(C)(N)CC1` (single isomer, unassigned) [Example 434, 5-amino-N-[5-(4-amino-4-methyl-azepan-1-yl)-1-methyl-pyrazol-4-yl]-2-(2-fluorophenyl)thiazole-4-carboxamide] are 15500 nM, 1000 nM and 0.093 nM.
On the same counts, the results for `Cn1ncc(NC(=O)c2nc(-c3c(F)cccc3F)sc2N)c1N1CC[C@@H]2OC(=O)N[C@@H]2CC1` [Example 486, N-[5-[(3aR,8aS)-2-oxo-3a,4,5,7,8,8a-hexahydro-3H-oxazolo[4,5-d]azepin-6-yl]-1-methyl-pyrazol-4-yl]-5-amino-2-(2,6-difluorophenyl)thiazole-4-carboxamide] are 11200 nM, 2300 nM and 0.058 nM.
Take `Nc1sc(-c2c(F)cccc2F)nc1C(=O)Nc1cnn(CC(F)F)c1N1CCCC[C@H](N)C1` [Example 103, (S)-5-amino-N-(5-(3-aminoazepan-1-yl)-1-(2,2-difluoroethyl)-1H-pyrazol-4-yl)-2-(2,6-difluorophenyl)thiazole-4-carboxamide]: the values for the IC50 with BaF3 parental cells (setting [2]) and in the experiment on BaF3 PIM1 cells (setting [3]) were 8200 nM and 4200 nM, respectively. The compound further showed a Ki on PIM1 of 0.083 nM.
Turning to `[2H]C([2H])([2H])n1ncc(NC(=O)c2nc(-c3c(F)cccc3F)sc2N)c1N1CC[C@H](N)CC(F)(F)C1` [Example 493, 5-amino-N-[5-[(5S)-5-amino-3,3-difluoro-azepan-1-yl]-1-(trideuteriomethyl)pyrazol-4-yl]-2-(2,6-difluorophenyl)thiazole-4-carboxamide], the IC50 with BaF3 parental cells (setting [4]) worked out at 7800 nM; in the experiment on BaF3 PIM1 cells (setting [5]) it was 17.7 nM. Moreover, the EC50 in experiment [1] amounted to 3000 nM.
On to `Cn1ncc(NC(=O)c2nc(-c3cccc(C#N)n3)sc2N)c1N1CC[C@@H](N)[C@H](F)CC1` [Example 432, 5-amino-N-[5-[(4R,5R)-4-amino-5-fluoro-azepan-1-yl]-1-methyl-pyrazol-4-yl]-2-(6-cyano-2-pyridyl)thiazole-4-carboxamide], for which the IC50 with BaF3 parental cells (setting [4]) turned out to be 6300 nM; in the experiment with BaF3 PIM1 cells (setting [5]), 5800 nM. Further, on PIM1, the affinity, expressed as Ki, was 1.44 nM.
For the compound `Cn1ncc(NC(=O)c2nc(-c3c(F)ccc(I)c3F)sc2N)c1N1CC[C@H](N)CC(F)(F)C1` [Example 347, 5-amino-N-[5-[(5S)-5-amino-3,3-difluoro-azepan-1-yl]-1-methyl-pyrazol-4-yl]-2-(2,6-difluoro-3-iodo-phenyl)thiazole-4-carboxamide], the IC50 in the experiment with BaF3 parental cells (setting [4]) stood at 2400 nM; with BaF3 PIM1 cells (setting [5]) it was 69.2 nM. This compound gave a Ki on PIM1 of 0.002 nM.
On the same counts, the results for `Cc1ccncc1-c1nc(C(=O)Nc2cnn(C)c2N2CC[C@@H](N)[C@H](F)CC2)c(N)s1` [Example 428, 5-amino-N-[5-[(4R,5R)-4-amino-5-fluoro-azepan-1-yl]-1-methyl-pyrazol-4-yl]-2-(4-methyl-3-pyridyl)thiazole-4-carboxamide] are over 25000 nM, 6600 nM and 0.884 nM.
With `Cn1ncc(NC(=O)c2nc(-c3c(F)ccc(I)c3F)sc2N)c1N1CC[C@@H](N)CC(F)(F)C1` [Example 346, 5-amino-N-[5-[(5R)-5-amino-3,3-difluoro-azepan-1-yl]-1-methyl-pyrazol-4-yl]-2-(2,6-difluoro-3-iodo-phenyl)thiazole-4-carboxamide], the figures for the IC50 in the experiment on BaF3 parental cells (setting [4]) and with BaF3 PIM1 cells (setting [5]) were 1200 nM and 1500 nM, respectively. This compound also gave a Ki on PIM1 of 0.002 nM.
Take `[2H]C([2H])([2H])n1ncc(NC(=O)c2nc(-c3c(F)cccc3F)sc2N)c1N1CC[C@@H](N)CC(F)(F)C1` [Example 494, 5-amino-N-[5-[(5R)-5-amino-3,3-difluoro-azepan-1-yl]-1-(trideuteriomethyl)pyrazol-4-yl]-2-(2,6-difluorophenyl)thiazole-4-carboxamide]: the IC50 in the experiment with BaF3 parental cells (setting [4]) was 8900 nM; in the experiment on BaF3 PIM1 cells (setting [5]) it was 13.4 nM. In addition, in experiment [1], the EC50 was determined as 54.6 nM.
Turning to `CCn1ncc(NC(=O)c2nc(-c3c(F)cccc3F)sc2N)c1N1CC[C@H](N)[C@@H](F)CC1` [Example 348, 5-amino-N-(5-((4S,5S)-4-amino-5-fluoroazepan-1-yl)-1-ethyl-1H-pyrazol-4-yl)-2-(2,6-difluorophenyl)thiazole-4-carboxamide], the figures for the IC50 with BaF3 parental cells (setting [4]) and in the experiment on BaF3 PIM1 cells (setting [5]) were 11200 nM and 825 nM, respectively. Also, at PIM1, the affinity, expressed as Ki, was 0.109 nM.
On to `Cn1ncc(NC(=O)c2nc(-c3ccccc3F)sc2N)c1N1CCCC(C)(N)CC1` (stereo not shown) [Example 433, 5-amino-N-[5-(4-amino-4-methyl-azepan-1-yl)-1-methyl-pyrazol-4-yl]-2-(2-fluorophenyl)thiazole-4-carboxamide], for which the IC50 in the experiment on BaF3 parental cells (setting [4]) was found to be 11100 nM; in the experiment with BaF3 PIM1 cells (setting [5]), 1300 nM. This compound also returned an inhibition constant (Ki) at PIM1 of 0.024 nM.
Consider `Cn1ncc(NC(=O)c2nc(-c3c(F)cccc3F)sc2N)c1N1CC[C@@H](N)CC(F)(F)C1` [Example 167, (R)-5-amino-N-(5-(5-amino-3,3-difluoroazepan-1-yl)-1-methyl-1H-pyrazol-4-yl)-2-(2,6-difluorophenyl)thiazole-4-carboxamide], for which the IC50 was over 25000 nM with BaF3 parental cells (setting [2]) and 48.4 nM with BaF3 PIM1 cells (setting [3]). Further, in experiment [1], the EC50 stood at 1400 nM.
With `Cc1c(-c2nc(C(=O)Nc3cnn(C)c3N3CC[C@@H](N)[C@H](F)CC3)c(N)s2)cnn1C` [Example 429, 5-amino-N-[5-[(4R,5R)-4-amino-5-fluoro-azepan-1-yl]-1-methyl-pyrazol-4-yl]-2-(1,5-dimethylpyrazol-4-yl)thiazole-4-carboxamide], the IC50 in the experiment on BaF3 parental cells (setting [4]) was over 25000 nM; with BaF3 PIM1 cells (setting [5]), 5300 nM. For the same compound, the inhibition constant Ki on PIM1 turned out to be 0.315 nM.
For the compound `Cn1ncc(NC(=O)c2nc(-c3ccncc3F)sc2N)c1N1CCC(N)CC(F)(F)C1` (racemic) [Example 426, 5-amino-N-[5-(5-amino-3,3-difluoro-azepan-1-yl)-1-methyl-pyrazol-4-yl]-2-(3-fluoro-4-pyridyl)thiazole-4-carboxamide], the IC50 with BaF3 parental cells (setting [4]) stood at 24800 nM; in the experiment on BaF3 PIM1 cells (setting [5]), 25.1 nM. Further, the Ki on PIM1 was 0.034 nM.
For the compound `Cc1cnc(F)c(-c2nc(C(=O)Nc3cnn(C)c3N3CCC[C@H](N)CC3)c(N)s2)c1` [Example 425, 5-amino-N-[5-[(4S)-4-aminoazepan-1-yl]-1-methyl-pyrazol-4-yl]-2-(2-fluoro-5-methyl-3-pyridyl)thiazole-4-carboxamide], the IC50 with BaF3 parental cells (setting [4]) was over 25000 nM; in the experiment with BaF3 PIM1 cells (setting [5]), 2500 nM. The Ki on PIM1 is 0.144 nM.
As for `[2H]C([2H])([2H])OC1CCN(c2c(NC(=O)c3nc(-c4c(F)cccc4F)sc3N)cnn2C)CCC1N` (stereo not shown) [Example 492, 5-amino-N-[5-[4-amino-5-(trideuteriomethoxy)azepan-1-yl]-1-methyl-pyrazol-4-yl]-2-(2,6-difluorophenyl)thiazole-4-carboxamide], in the experiment on BaF3 parental cells (setting [4]), the IC50 is 20400 nM. Also, in experiment [1], the EC50 was 73.7 nM.
On the same counts, the results for `COC1CCN(c2c(NC(=O)c3nc(-c4ncccc4F)sc3N)cnn2C)CCC1N` (racemic) [Example 323, 5-amino-N-[5-(4-amino-5-methoxy-azepan-1-yl)-1-methyl-pyrazol-4-yl]-2-(3-fluoro-2-pyridyl)thiazole-4-carboxamide] are over 25000 nM and 165 nM.
On the same counts, the results for `Cn1ncc(NC(=O)c2nc(-c3c(F)cccc3F)sc2N)c1N1CCC(C)(N)CC(F)(F)C1` (stereo not shown) [Example 495, 5-amino-N-[5-(5-amino-3,3-difluoro-5-methyl-azepan-1-yl)-1-methyl-pyrazol-4-yl]-2-(2,6-difluorophenyl)thiazole-4-carboxamide] are 5400 nM and 888 nM.
Turning to `[2H]C([2H])([2H])n1ncc(NC(=O)c2nc(-c3c(F)cccc3F)sc2N)c1N1CC[C@@H](N)[C@H](F)CC1` [Example 451, 5-amino-N-[5-[(4R,5R)-4-amino-5-fluoro-azepan-1-yl]-1-(trideuteriomethyl)pyrazol-4-yl]-2-(2,6-difluorophenyl)thiazole-4-carboxamide], the IC50 in the experiment with BaF3 parental cells (setting [4]) stood at 9400 nM. In addition, the EC50 in experiment [1] is 124 nM.
For the compound `Cn1ncc(NC(=O)c2nc(-c3c(F)cccc3F)sc2N)c1N1CCCC2(CNC2)C1` [Example 508, 5-amino-N-[5-(2,6-diazaspiro[3.5]nonan-6-yl)-1-methyl-pyrazol-4-yl]-2-(2,6-difluorophenyl)thiazole-4-carboxamide], the IC50 in the experiment with BaF3 parental cells (setting [4]) amounted to 25000 nM. In addition, the EC50 in experiment [1] amounted to 3000 nM.
